Test results published in article PMC9945865, “Anticancer evaluation of new organometallic ruthenium(II) flavone complexes” (RSC Medicinal Chemistry, 2022).

Legend:
[1] = tested on: cervical, breast, hepatocellular and colorectal cancer cell lines; design: method as in PMID 24793593; details: hepatocellular and colorectal cancer cell lines ref 19; cited from earlier work
[2] = tested on: ovarian cancer cell lines; design: method as in doi:10.1021/OM500317B; details: ovarian cancer cell lines ref 20; cited from earlier work
[3] = Cytotoxicity on HUVECs, trypan blue exclusion assay; assay type: cell-based, human; details: human, HUVEC cells, % of control, p > 0.05 vs control, read-out: Cell viability of HUVECs
Method: The biocompatibility of flavones (1 and 2)[30] alongside their ruthenium(II) metal complexes (1Ru and 2Ru) with HUVEC cells was established using the trypan blue exclusion assay. A concentration four times higher (i.e. 40 μM) than the highest concentration used for the tube formation antiangiogenic evaluation study (i.e. 10 μM) was selected for this cytotoxic assay.
Cytotoxic activity of treatments on HUVECs using trypan blue exclusion assay.[55] HUVECs were seeded in 96 well plates at 1 × 10^5 cells per mL and cultured for 24 h. Cells were then treated with either luteolin, the synthesised derivatives at 40 μM or culture medium (control) for 24 h. After 24 h, solutions were removed and cells washed with 100 μL PBS followed by the addition of 50 μL trypsin–EDTA and incubation for 5 min to detach the cells. 50 μL of EGM-2 media was added to the wells. 50 μL aliquots of the cell suspension were mixed with equal volume of trypan blue (TB) 0.2% v/v (prepared from 0.4% TB diluted with PBS) then the cells were counted using a haemocytometer. Number of viable and dead cells were counted manually and % cell viability of each treatment was expressed as % of control using the equation:% Cell Viability = (Cell viability in treatment/Cell viability in control) × 100where cell viability was calculated as follows:Cell Viability = Number of viable cells/Total number of cells(viable and dead).

MCF-7 [4] = assay: Cell viability, 72 h MTT assay; assay type: cell-based, human; details: Homo sapiens, MCF7; MCF-7, 72 h MTT, mean ± SEM, n = 3
Method: (§1) The unique chemical features and coordination geometries of metal ions can add several additional binding interactions that can potentially enhance their anticancer properties for example by allowing intercalation and exploitation of their redox potential.[24] […] In that context, coordination of derivative (2) with a Ru(II) metal ligand is a promising approach to further improve its antiproliferative activity.
(§2) MCF-7 and MDA-MB-231 cells were seeded at a density of 4 × 10^4 and 2 × 10^4 cells per mL, respectively, into 96 well plates and incubated to allow the attachment for 24 h. After 24 h, the cells were treated with one of the synthesised derivatives at range of concentrations (0–100 μM) for 67 h. After 67 h, 20 μL of MTT (5 mg mL^−1) solution in PBS was added to each well and the cells were incubated for 5 h. The purple crystals formed were dissolved in 100 μL of DMSO and the plates were read at 560 nm using a SPECTRA max UV spectrometer (Bio-Rad). The data represented are the mean of the three individual experiments.

MDA-MB-231 [5] = assay: Cell viability, 72 h MTT assay; assay type: cell-based, human; details: Homo sapiens; MDA-MB-231, 72 h MTT, mean ± SEM, n = 3
Method: as §1, §2

VEGF i-motif DNA [6] = assay: I-motif DNA binding, UV-visible absorbance; design: species or system human; details: DNA : flavonoid 2 μM : 2 μM, pH 5.5, 25 °C
Source text: (§3) I-motifs are four stranded antiparallel cytosine rich DNA sequences capable of forming at telomere and promotor regions of genomic DNA.[41,42] […] Due to the presence of potential i-motif forming sequences in 69% of promoter regions in human oncogenes, they are postulated to play a key role in oncogene expression regulation.[44] VEGF and c-myc i-motif sequences are prevalent in oncogene promotor regions in many cancers including breast cancer and as such their ligands have potential anticancer roles.[45] The natural flavonol, fisetin, is reported to specifically bind to VEGF i-motif DNA and regulate its function by stabilizing its hairpin structure.[31] […] In continuation of our investigation of the effects of Ru metal complexation on the different biological activities of flavonoids, interactions with VEGF and c-myc i-motif DNA were studied using UV-vis spectroscopic techniques. […] However, 2Ru's addition led to a 1 nm hypsochromic shift of VEGF i-motif absorbance maximum from 272 to 271 nm. On the other hand, addition of the 4-oxo flavone (1) and its Ru complex (1Ru) led to minor changes in λmax of both sequences that was hypochromic (5% and 3%) with VEGF and hyperchromic (2% and 5%) in case of c-myc (Fig. 8).
(§4) UV-visible absorbance measurements and DNA UV melting studies were performed on a Cary 300 C (Varian USA) UV-visible spectrophotometer. VEGF and c-myc i-motif DNA (5′-3′ sequences ([…]) and ([…]), respectively) were purchased from Sigma-Aldrich (Gillingham, UK) and used without further purification. Na cacodylate buffer (20 mM, pH 5.5) was used for both i-motifs. DNA concentrations were determined by measuring the absorbance at 260 nm after melting using the molar extinction coefficient supplied by the manufacturer. VEGF and c-myc i-motifs were prepared for experiments by diluting with buffer solution, annealed with or without the flavonoid at 95 °C for 5 min then gently cooled to room temperature. The stock solutions of the test compounds (20 mM) were prepared in 100% sterile DMSO. These stocks were then appropriately diluted with HPLC grade water and DMSO levels were maintained below 0.1% in the test concentrations.
(§5) UV-visible absorbance measurements and UV melting studies of either free i-motifs (VEGF or c-myc), free flavone (1, 1Ru, 2 or 2Ru) or both i-motif DNA and flavone (2 μM: 2 μM) were recorded using 1.0 cm matched quartz cuvettes. First spectra were recorded in the range of 200–500 nm to determine the relevant wavelength range were no peaks were observed above 320 nm. […] UV-visible absorbance was measured at 25 °C while melting curves were collected at a heating rate of 1 °C min^−1 from 20 to 90 °C. Tm was calculated by non-linear fitting of the sigmoidal curve obtained at 295 nm.

c-myc i-motif DNA [7] = assay: I-motif DNA binding, UV-visible absorbance; design: species or system human; details: DNA : flavonoid 2 μM : 2 μM, pH 5.5, 25 °C
Source text: as §3, §4, §5

VEGF i-motif DNA [8] = assay: I-motif DNA UV melting (thermal stability); assay type: binding, human; details: for Tm: VEGF i-motif with flavone at 1 : 1 ratio, 295 nm, free DNA 46 °C; for ΔTm: VEGF i-motif, 1 : 1 ratio, ΔTm = Tm (DNA-flavone) − Tm (DNA)
Source text: (§6) The effect of this set of flavones on VEGF and c-myc was further evaluated via thermal stability measurements. Stabilizing/destabilizing the promotor i-motif structures is often reported to regulate expression of the corresponding genes, which for VEGF and c-myc could have detrimental effects on cancer growth and propagation.[48] As observed in Fig. 9, effects of the test flavones on the thermal stability of the VEGF and c-myc i-motif sequences were generally marginal and in agreement with λmax chromophoric shifts. […] Compound 1 destabilized VEGF i-motif in contrast to stabilizing the c-myc one. This mirrored the trend of a higher chromophoric shift observed for flavone 1 with VEGF i-motif sequence that also differed in pattern (hypochromic) from the shift witnessed with the c-myc sequence (hyperchromic). These findings could indicate higher selectivity of the 4-oxo derivative (1) towards VEGF i-motif based on an intercalative binding mode especially that hypochromic shifts are reported with DNA intercalation.[49,50] […] In this regard, the highest i-motif activity seen for the parent flavonoids was switched from VEGF to c-myc with compound 1 and vice versa with compound 2 upon Ru chelation. This emphasizes the key role of the interplay between the substitution at position 4 and metal complexation on the interaction with biological targets.
as §4, §5

c-myc i-motif DNA [9] = assay: I-motif DNA UV melting (thermal stability); assay type: binding, human; details: for Tm: c-myc i-motif with flavone at 1 : 1 ratio, 295 nm, free DNA 45 °C; for ΔTm: c-myc i-motif, 1 : 1 ratio, ΔTm = Tm (DNA-flavone) − Tm (DNA)
Source text: as §6, §4, §5

MCF-7 [10] = assay: Wound healing (migration) 24 h scratch assay; assay type: cell-based, human; details: MCF-7, any of the tested doses (1, 10, 20 μM)
Method: (§7) Malignant cell migration is essential for tumour invasion and metastasis.[1] Thus, the ability of the synthetic flavones (1 and 2) and their Ru(II) metal complexes (1Ru and 2Ru) to inhibit the migration of breast cancer cells (MCF-7 and MDA-MB-231) was assessed by an in vitro 24 h scratch assay. Low, sub-cytotoxic concentrations of 1, 10 and 20 μM were used in this evaluation.
(§8) MCF-7 or MDA-MB-231 cells were seeded in 12-well plates at 2 × 10^5 or 1 × 10^5 cells per mL, respectively, and cultured until 70–80% confluency. Afterwards, they were serum-starved (0% serum) for 24 h to inactivate the cell proliferation. A scratch was performed on the cell monolayers using a 200 μL pipette tip. Cells were then washed twice with PBS and treated with complete medium and one of the synthesized derivatives at 1, 10 or 20 μM. […] Images of the scratches were taken immediately after performing the scratch (t = 0 h) and at 24 h (t = 24 h). The area not covered by the cells was quantified using ImageJ software. % of wound closure was calculated using the following equation:100 × ((Area of scratch at t0 − Area of scratch at t24)/Area of scratch at t0)

MDA-MB-231 [11] = assay: Wound healing (migration) 24 h scratch assay; assay type: cell-based, human; details: MDA-MB-231, 1, 10, 20 μM, 24 h
Method: as §7, §8

HUVECs = assay: Matrigel endothelial cell tube formation assay (VEGF-mediated); assay type: cell-based, human; details: compared to the positive control (10 ng mL^−1 VEGF), 12 h
Method: In our recent study,[30] the 4′-chlorophenylflavone derivatives 1 and 2 have shown promising antiangiogenic activities in vitro. Herein, the effect of complexation with a ruthenium(II) metal ligand on the antiangiogenic activity of 1 and 2 was evaluated using the Matrigel tube formation assay that assesses many of the main steps involved in the process of angiogenesis. Inhibition of VEGF-mediated tube formation by the tested substrates was observed after 12 h of treatment on HUVECs at 1 μM and 10 μM concentrations. Luteolin is a natural flavone well known for its high antiangiogenic activity both in vitro and in vivo[34] and as such was used in this study as a reference standard. In accordance with reported data, luteolin inhibited the measured elements of tube formation by 30% compared to the positive control.[34,35] […] The ability of Ru(II) organometallic derivatives to target tumour metastasis has been widely reported both in vitro and in vivo.[3,6,9,36] Thus, based on the preliminary antiangiogenic trends observed for our target Ru(II) complexes (1Ru and 2Ru) and their parent flavones (1 and 2), we further investigated their antiproliferative and antimetastatic potential on the estrogen receptor positive breast cancer cell line (MCF-7) and the more aggressive triple negative cell line (MDA-MB-231).
HUVECs were cultured until confluency and then serum starved (0.1% serum) for 24 h. The tube formation assay followed the reported assay.[56] Briefly, 96 well plates were coated with 50 μL of Corning™ Matrigel™ GFR Membrane Matrix at 4 °C and incubated at 37 °C for 1–2 h to solidify. Serum starved HUVECs were seeded on the solidified Matrigel at 3 × 10^5 cells per mL and treated with medium containing VEGF (10 ng mL^−1) and either luteolin or one of the synthesised derivatives (at 1 μM or 10 μM). Plates were incubated for 12 h and photos covering the whole well area were taken using 4× magnification power of an inverted light microscope. Number of junctions, number and length of segments and master segments were quantified from the taken Images via the Angiogenesis Analyzer plugin[57] in ImageJ software.[58] […] Data was represented as a ratio to the positive control (VEGF enriched).

SMILES	IC50 [1]	IC50 [2]	viability at 24 h, 40 µM [3]	IC50 (MCF-7 [4])	IC50 (MDA-MB-231 [5])	hyperchromic shift (increase) at absorbance maximum λmax (VEGF i-motif DNA [6])	hyperchromic shift (increase) at absorbance maximum λmax (c-myc i-motif DNA [7])	Tm (VEGF i-motif DNA [8])	ΔTm (VEGF i-motif DNA [8])	Tm (c-myc i-motif DNA [9])	ΔTm (c-myc i-motif DNA [9])	melting point	antimigratory activity (MCF-7 [10])	effect on the migration (MDA-MB-231 [11])	hypochromic change at λmax (VEGF i-motif DNA [6])	inhibition of the measured elements of tube formation (HUVECs)
N.N.[Cl][Pt][Cl] [cisplatin]	13 to 52 µM	1.5 to 25 µM	–	–	–	–	–	–	–	–	–	–	–	–	–	–
Oc1cc(O)c2c(=S)cc(-c3ccc(Cl)cc3)oc2c1 [compound 2, 2-(4-chlorophenyl)-5,7-dihydroxy-4H-chromene-4-thione]	–	–	~100%	1.2 ± 0.8 µM	43.1 ± 1.29 µM	16%	18%	47 °C	1 °C	47 °C	2 °C	247.7 to 248 °C	–	–	–	–
O=c1cc(-c2ccc(Cl)cc2)oc2cc(O)cc(O)c12 [compound 1, 2-(4-chlorophenyl)-5,7-dihydroxy-4H-chromen-4-one]	–	–	~100%	> 100 µM	> 100 µM	–	2%	44 °C	−2 °C	46 °C	1 °C	–	no observed effects	neither showed any effect	5%	–
O=c1cc(-c2ccc(O)c(O)c2)oc2cc(O)cc(O)c12 [luteolin, Luteolin, reference compound]	–	–	–	–	–	–	–	–	–	–	–	–	–	–	–	30%
